Experimental data reported in ChEMBL document CHEMBL1143473, “Synthesis and evaluation of 18F-labeled dopamine D3 receptor ligands as potential PET imaging agents” (Bioorg Med Chem Lett, 2005).

Tests used:
[1] = target: T1, D(4) dopamine receptor (Homo sapiens, UniProt P21917); experiment: biochemical
T1 sequence (P21917 whole entry): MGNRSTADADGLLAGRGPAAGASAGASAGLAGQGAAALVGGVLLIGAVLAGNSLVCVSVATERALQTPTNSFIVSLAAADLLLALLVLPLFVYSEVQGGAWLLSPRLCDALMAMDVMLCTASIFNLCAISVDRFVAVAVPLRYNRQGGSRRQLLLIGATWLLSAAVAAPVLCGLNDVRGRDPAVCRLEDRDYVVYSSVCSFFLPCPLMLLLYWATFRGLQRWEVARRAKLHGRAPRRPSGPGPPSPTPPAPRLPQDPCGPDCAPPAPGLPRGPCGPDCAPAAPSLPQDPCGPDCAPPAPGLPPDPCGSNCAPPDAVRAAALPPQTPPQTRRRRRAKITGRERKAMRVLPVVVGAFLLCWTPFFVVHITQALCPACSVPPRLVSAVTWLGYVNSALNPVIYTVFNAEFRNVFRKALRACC
Description: Binding affinity towards Dopamine receptor D 4.4 using CHO cell line and [3H]spiperone as radioligand

[2] = target: T2, D(2) dopamine receptor (Homo sapiens, UniProt P14416); experiment: biochemical
Description: Binding affinity towards Dopamine D2S receptor using CHO cell line and [3H]spiperone as radioligand

[3] = target: D(3) dopamine receptor (Homo sapiens, UniProt P35462); experiment: biochemical
Description: Binding affinity towards Dopamine receptor D3 using CHO cell line and [3H]-spiperone as radioligand

[4] = target: D(1A) dopamine receptor (Sus scrofa, UniProt P50130); experiment: Binding affinity towards Dopamine receptor D1 using porcine striatal membrane and [3H]-SCH- 23390 as radioligand; set-up: species or system Striatum
[5] = Binding affinity towards 5-HT2 receptor using porcine cortical membrane and [3H]ketanserin as radioligand; set-up: species or system Sus scrofa
[6] = target: T2, D(2) dopamine receptor; experiment: biochemical; remark: listed apart in the source
Description: Binding affinity towards Dopamine D2L receptor using CHO cell line and [3H]spiperone as radioligand

T2 sequence (P14416 whole entry): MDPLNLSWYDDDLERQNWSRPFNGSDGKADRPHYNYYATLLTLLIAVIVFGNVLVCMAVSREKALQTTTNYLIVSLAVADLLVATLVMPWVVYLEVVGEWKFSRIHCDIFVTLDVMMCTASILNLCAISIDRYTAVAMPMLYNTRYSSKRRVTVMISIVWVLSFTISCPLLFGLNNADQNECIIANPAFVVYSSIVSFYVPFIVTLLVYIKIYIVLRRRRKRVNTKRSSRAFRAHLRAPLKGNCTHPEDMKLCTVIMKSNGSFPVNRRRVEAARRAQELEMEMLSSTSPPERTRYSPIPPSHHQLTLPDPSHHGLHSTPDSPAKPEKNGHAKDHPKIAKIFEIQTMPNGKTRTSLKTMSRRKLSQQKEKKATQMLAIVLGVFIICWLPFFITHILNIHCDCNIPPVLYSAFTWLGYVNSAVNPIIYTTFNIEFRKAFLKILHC
Chain of D(1A) dopamine receptor (P50130 whole entry): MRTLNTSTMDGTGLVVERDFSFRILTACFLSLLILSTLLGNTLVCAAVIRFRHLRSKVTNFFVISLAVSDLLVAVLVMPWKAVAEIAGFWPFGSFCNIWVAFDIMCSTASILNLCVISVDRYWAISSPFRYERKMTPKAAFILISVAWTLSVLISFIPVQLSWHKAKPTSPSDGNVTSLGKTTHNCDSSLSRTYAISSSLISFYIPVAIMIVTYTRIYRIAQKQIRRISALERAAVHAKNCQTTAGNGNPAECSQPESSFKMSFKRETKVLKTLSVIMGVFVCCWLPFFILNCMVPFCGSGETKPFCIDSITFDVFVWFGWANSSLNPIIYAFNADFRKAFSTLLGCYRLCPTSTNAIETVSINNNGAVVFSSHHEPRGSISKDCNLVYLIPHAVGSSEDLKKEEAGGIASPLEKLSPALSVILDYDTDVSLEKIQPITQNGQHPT
Chain of D(3) dopamine receptor (P35462 whole entry): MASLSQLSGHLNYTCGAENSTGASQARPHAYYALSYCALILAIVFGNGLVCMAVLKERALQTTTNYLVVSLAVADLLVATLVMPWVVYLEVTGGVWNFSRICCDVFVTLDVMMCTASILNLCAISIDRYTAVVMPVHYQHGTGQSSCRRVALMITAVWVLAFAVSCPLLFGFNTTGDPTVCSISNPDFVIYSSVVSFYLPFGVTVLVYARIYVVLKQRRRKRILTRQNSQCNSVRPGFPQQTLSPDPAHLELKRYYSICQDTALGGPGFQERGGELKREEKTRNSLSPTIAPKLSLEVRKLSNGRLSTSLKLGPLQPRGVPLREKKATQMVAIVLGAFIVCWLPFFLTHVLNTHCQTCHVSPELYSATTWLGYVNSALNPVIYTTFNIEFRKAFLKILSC

Compound	Ki [1]	Ki [2]	Ki [3]	Ki [4]	Ki [5]	Ki [6]
O=C(NCCCCN1CCN(c2cccc(Cl)c2Cl)CC1)c1cccc(F)n1	97 nM	57 nM	9 nM	910 nM	240 nM	44 nM
COc1ccccc1N1CCN(CCCCNS(=O)(=O)c2ccc(F)cc2)CC1	9.9 nM	120 nM	210 nM	3500 nM	–	72 nM
COc1ccccc1N1CCN(CCCCNC(=O)c2ccc(F)cc2)CC1	–	–	–	–	2300 nM	–
COc1ccccc1N1CCN(CCCCNC(=O)c2cccc(F)n2)CC1	76 nM	400 nM	86 nM	4100 nM	3200 nM	260 nM
O=S(=O)(NCCCCN1CCN(c2cccc(Cl)c2Cl)CC1)c1ccc(F)cc1	17 nM	49 nM	16 nM	1800 nM	830 nM	39 nM
O=C(NCCCCN1CCN(c2cccc(Cl)c2Cl)CC1)c1ccc(F)cc1	44 nM	18 nM	0.53 nM	920 nM	230 nM	–
O=C(NCCCCN1CCN(c2cccc(Cl)c2Cl)CC1)c1ccc(F)nc1	100 nM	29 nM	1.1 nM	1300 nM	84 nM	21 nM
O=C(NCCCCN1CCN(c2cccc(Cl)c2Cl)CC1)c1cc2ccccc2s1	–	–	–	–	3000 nM	–
COc1ccccc1N1CCN(CCCCNC(=O)c2ccc(F)nc2)CC1	130 nM	240 nM	14 nM	6300 nM	3700 nM	160 nM
